The values below come from patent US11773113B2, “Crystal forms of crisaborole in free form and preparation method and use thereof” (Anacor Pharmaceuticals, Inc., priority 2016, dated 2023).

Holding throughout (format): physicochemical
Data set [1] in a line: Study of dynamic solubility (saturated solution, HPLC). The note with it: for Solubility assessment: FaSSIF, FeSSIF, SGF and water; for solubility at 1 h / solubility at 24 h / solubility at 4 h: thermodynamic from solid. The source says: The high performance liquid chromatography (HPLC) data were collected in an Agilent 1260, and the used detector was a diode array detector (DAD). The HPLC method as described in the invention has the following parameters: […]

The nature of data set [2]: Study of moisture absorption, dynamic vapor sorption (DVS) test. The settings on record: for Moisture absorption characteristic according to Chinese Pharmacopoeia (2015): 25° C.±1° C.; for Moisture absorption characteristic according to Chinese Pharmacopoeia (2015) / Weight increase of 80% relative humidity: 80% relative humidity; for Weight increase of 80% relative humidity / Weight increase of 95% relative humidity: DVS, 25° C. As for the experimental part: The dynamic vapor sorption (DVS) pattern as described in the invention was collected on an intrinsic dynamic vapor sorption meter as produced by Surface Measurement Systems Ltd. The dynamic vapor sorption method has the following parameters: Temperature: 25° C., Loading gas, flowing speed: N2, 200 ml/min, Variation in mass per time: 0.002%/minute, Relative humidity range: 0% RH-95% RH. […] The obtained results were shown in Table 13: With regard to the descriptions for the moisture absorption characteristic and the definition for the increased weight of moisture absorption (Guidelines for the Moisture Absorption Tests of Drugs in the Appendix of Chinese Pharmacopoeia (2015), Experimental conditions: 25° C.±1° C., 80% relative humidity): […]

Data set [3] is described as follows: Study of particle size distribution (PSD, laser particle size analytic meter). The settings on record: for D10 / D50 (median size) / D90: volume distribution; for D10 / D50 (median size) / D90 / MV (average particle size as calculated in terms of the volume): dispersion medium Isopar G; for MV (average particle size as calculated in terms of the volume): wet process; for Particle size distribution (PSD pattern): from PSD patterns FIG. 26-28. As for the experimental part:
The particle size distribution (PSD) results as described in the invention were collected on a S3500-type laser particle size analytic meter as produced by Microtrac Company. The Microtrac S3500 is equipped with a SDC (Sample Delivery Controller) feeding system. The test was conducted via a wet process, and the dispersion medium as used in the test was Isopar G. The laser particle size analytic meter has the following parameters: [table]

A short description of data set [4]: Study of long-term and acceleration stabilities (XRPD). The settings on record: both 25° C./60% RH and 40° C./75% RH, 3 months.
Data set [5] is described as follows: Polarizing microscope (PLM) patterns. The settings on record: from PLM patterns FIG. 29-31.
Data set [6] is described as follows: Study of mechanical stability (ground by hand for 5 minutes, XRPD). The settings on record: ground for 5 minutes by hand in a mortar.

SMILES strings stand for the structures. ≈ marks a conversion by molar mass, not a printed value.

The Solubility is the dissolved amount per volume that the medium holds. A low value points to a poorly soluble substance. `N#Cc1ccc(Oc2ccc3c(c2)COB3O)cc1` [Crystal form III, 4-[(1,3-dihydro-1-hydroxyl-2,1-benzoxaborolane-5-yl)oxy]benzonitrile]: the Solubility came to 8 µg/mL (≈ 31.9 µM) in data set [1] (FaSSIF (pH = 6.5), 1 h); 10 µg/mL (≈ 39.8 µM) in data set [1] (FaSSIF (pH = 6.5), 4 h); 12 µg/mL (≈ 47.8 µM) in data set [1] (FaSSIF (pH = 6.5), 24 h); 25 µg/mL (≈ 99.6 µM) in data set [1] (FeSSIF (pH = 5.0), 1 h); 67 µg/mL (≈ 267 µM) in data set [1] (FeSSIF (pH = 5.0), 4 h); 74 µg/mL (≈ 295 µM) in data set [1] (FeSSIF (pH = 5.0), 24 h). For the same compound, the Solubility was 5 µg/mL (≈ 19.9 µM) in data set [1] (H2O, 1 h); 4 µg/mL (≈ 15.9 µM) in data set [1] (H2O, 4 h); 6 µg/mL (≈ 23.9 µM) in data set [1] (H2O, 24 h); 33 µg/mL (≈ 131 µM) in data set [1] (SGF (pH = 1.8), 1 h); 34 µg/mL (≈ 135 µM) in data set [1] (SGF (pH = 1.8), 4 h); 40 µg/mL (≈ 159 µM) in data set [1] (SGF (pH = 1.8), 24 h). The Solubility assessment result in data set [1] was “in line with medicinal requirements”. In addition, the “Moisture absorption characteristic according to Chinese Pharmacopoeia (2015)” value in data set [2] was “almost have no moisture absorption”. The “Weight increase of 80% relative humidity” value in data set [2] stood at 0.09%. Moreover, the “Weight increase of 95% relative humidity” value in data set [2] amounted to 0.15%. Besides, the D10 in data set [3] is 21.68 μm. Besides, the “D50 (median size)” value in data set [3] came to 163.0 μm. Moreover, the D90 in data set [3] is reported as 903.1 μm. In data set [3], the “MV (average particle size as calculated in terms of the volume)” value is listed as 289.0 μm. Further, the “Stability of the crystal form on storage” value in data set [4] is “maintain their stability”.
In the case of `N#Cc1ccc(Oc2ccc3c(c2)COB3O)cc1` [Crystal form IV, 4-[(1,3-dihydro-1-hydroxyl-2,1-benzoxaborolane-5-yl)oxy]benzonitrile], the Solubility in data set [1] (FaSSIF (pH = 6.5), 1 h) amounted to 9 µg/mL (≈ 35.8 µM); in data set [1] (FaSSIF (pH = 6.5), 4 h) it was 17 µg/mL (≈ 67.7 µM); in data set [1] (FaSSIF (pH = 6.5), 24 h), 13 µg/mL (≈ 51.8 µM); in data set [1] (FeSSIF (pH = 5.0), 1 h) it was 62 µg/mL (≈ 247 µM); in data set [1] (FeSSIF (pH = 5.0), 4 h), 61 µg/mL (≈ 243 µM); in data set [1] (FeSSIF (pH = 5.0), 24 h), 56 µg/mL (≈ 223 µM). The Solubility in data set [1] (H2O, 4 h) stood at 6 µg/mL (≈ 23.9 µM); in data set [1] (H2O, 24 h) it was 4 µg/mL (≈ 15.9 µM); in data set [1] (SGF (pH = 1.8), 1 h), 31 µg/mL (≈ 123 µM); in data set [1] (SGF (pH = 1.8), 4 h), 27 µg/mL (≈ 108 µM); in data set [1] (SGF (pH = 1.8), 24 h), 26 µg/mL (≈ 104 µM). The Solubility assessment result in data set [1] is listed as “in line with medicinal requirements”. In addition, in data set [5], the “Particle sizes of the particles (PLM pattern)” value (“Particle sizes of the particles” for short) is “homogeneous”. The “Moisture absorption characteristic according to Chinese Pharmacopoeia (2015)” value in data set [2] (listed as crystal IV) is on record as “slight moisture absorption”. Besides, the “Weight increase of 80% relative humidity” value in data set [2] is listed as 1.53%. Moreover, the “Weight increase of 95% relative humidity” value in data set [2] is 4.90%. Further, the “Particle size distribution (PSD pattern)” value in data set [3] is recorded as “homogeneous”. The compound also came in with a D10 in data set [3] of 13.43 μm. For the same compound, the “D50 (median size)” value in data set [3] was 33.68 μm. In addition, the D90 in data set [3] is listed as 99.36 μm. Moreover, in data set [3], the “MV (average particle size as calculated in terms of the volume)” value is 52.95 μm. The values for the Final crystal form result in data set [6] and in data set [6] (listed as crystal form IV) were “Crystal form IV” and “not changed”, respectively.
With `N#Cc1ccc(Oc2ccc3c(c2)COB3O)cc1` [Crystal form II, 4-[(1,3-dihydro-1-hydroxyl-2,1-benzoxaborolane-5-yl)oxy]benzonitrile], the Solubility in data set [1] (FaSSIF (pH = 6.5), 1 h) stood at 11 µg/mL (≈ 43.8 µM); in data set [1] (FaSSIF (pH = 6.5), 4 h), 5 µg/mL (≈ 19.9 µM); in data set [1] (FaSSIF (pH = 6.5), 24 h) it was 8 µg/mL (≈ 31.9 µM); in data set [1] (FeSSIF (pH = 5.0), 1 h), 18 µg/mL (≈ 71.7 µM); in data set [1] (FeSSIF (pH = 5.0), 4 h) it was 49 µg/mL (≈ 195 µM); in data set [1] (FeSSIF (pH = 5.0), 24 h), 55 µg/mL (≈ 219 µM). The Solubility came out at 3 µg/mL (≈ 11.9 µM) in data set [1] (H2O, 1 h); 1 µg/mL (≈ 3.98 µM) in data set [1] (H2O, 4 h); 6 µg/mL (≈ 23.9 µM) in data set [1] (H2O, 24 h); 10 µg/mL (≈ 39.8 µM) in data set [1] (SGF (pH = 1.8), 1 h); 26 µg/mL (≈ 104 µM) in data set [1] (SGF (pH = 1.8), 4 h); 15 µg/mL (≈ 59.7 µM) in data set [1] (SGF (pH = 1.8), 24 h). The Solubility assessment result in data set [1] is “in line with medicinal requirements”. Moreover, the “Particle sizes of the particles” value in data set [5] is recorded as “homogeneous”. Besides, in data set [2], the “Moisture absorption characteristic according to Chinese Pharmacopoeia (2015)” value is “almost have no moisture absorption”. In addition, the “Weight increase of 80% relative humidity” value in data set [2] amounted to 0.13%. Also, the “Weight increase of 95% relative humidity” value in data set [2] turned out to be 0.32%. In addition, the “Particle size distribution (PSD pattern)” value in data set [3] is given as “homogeneous”. In data set [3], this compound yielded a D10 of 8.24 μm. Moreover, in data set [3], the “D50 (median size)” value came out at 20.46 μm. In addition, the D90 in data set [3] stood at 40.42 μm. For the same compound, the “MV (average particle size as calculated in terms of the volume)” value in data set [3] is 23.13 μm. Further, the “Stability of the crystal form on storage” value in data set [4] is recorded as “maintain their stability”.
The solubility is the concentration that dissolves in the medium under given conditions. A higher solubility goes with a readily soluble substance. Regarding `N#Cc1ccc(Oc2ccc3c(c2)COB3O)cc1` [Crystal form I, 4-[(1,3-dihydro-1-hydroxyl-2,1-benzoxaborolane-5-yl)oxy]benzonitrile], the Solubility in data set [1] (FaSSIF (pH = 6.5), 4 h) turned out to be 7 µg/mL (≈ 27.9 µM); in data set [1] (FeSSIF (pH = 5.0), 1 h) it was 44 µg/mL (≈ 175 µM); in data set [1] (H2O, 4 h), 5 µg/mL (≈ 19.9 µM); in data set [1] (SGF (pH = 1.8), 1 h) it was 11 µg/mL (≈ 43.8 µM); in data set [1] (SGF (pH = 1.8), 24 h), 38 µg/mL (≈ 151 µM). The Solubility assessment entry in data set [1] is given as “in line with medicinal requirements”. Moreover, the solubility at 1 h in data set [1] (fasted state simulated intestinal fluid (FaSSIF), pH 6.5, fassif, FaSSIF (pH = 6.5), 1 h) was 6 µg/mL (≈ 23.9 µM); in data set [1] (water, H2O, 1 h), 4 µg/mL (≈ 15.9 µM). Besides, the solubility at 24 h was 12 µg/mL (≈ 47.8 µM) in data set [1] (fasted state simulated intestinal fluid (FaSSIF), pH 6.5, fassif, FaSSIF (pH = 6.5), 24 h); 59 µg/mL (≈ 235 µM) in data set [1] (fed state simulated intestinal fluid (FeSSIF), pH 5, fessif, FeSSIF (pH = 5.0), 24 h); 6 µg/mL (≈ 23.9 µM) in data set [1] (water, H2O, 24 h). Besides, the solubility at 4 h in data set [1] (fed state simulated intestinal fluid (FeSSIF), pH 5, fessif, FeSSIF (pH = 5.0), 4 h) was 59 µg/mL (≈ 235 µM); in data set [1] (simulated gastric fluid (SGF), pH 1.8, simulated gastric fluid, SGF (pH = 1.8), 4 h) it was 37 µg/mL (≈ 147 µM). In data set [5], the “Particle sizes of the particles” value is given as “homogeneous”. The “Moisture absorption characteristic according to Chinese Pharmacopoeia (2015)” value in data set [2] is listed as “almost have no moisture absorption”. In addition, the “Weight increase of 80% relative humidity” value in data set [2] is reported as 0.14%. Besides, the “Weight increase of 95% relative humidity” value in data set [2] came out at 0.32%. For the same compound, the “Particle size distribution (PSD pattern)” value in data set [3] was “homogeneous”. Also, the D10 in data set [3] worked out at 1.69 μm. The “D50 (median size)” value in data set [3] is recorded as 5.52 μm. For the same compound, in data set [3], the D90 was 20.35 μm. For the same compound, the “MV (average particle size as calculated in terms of the volume)” value in data set [3] is listed as 9.62 μm. For the same compound, the “Stability of the crystal form on storage” value in data set [4] is given as “maintain their stability”. For the same compound, the Final crystal form result in data set [6] is “Crystal form I”; in data set [6] (listed as crystal form I), “not changed”.
